The record followed here is US9108929B2, “Quinazoline based EGFR inhibitors” (Curis, Inc., priority 2006, dated 2015).

Bounds are passed on as bounds.

The target of data set [1] is T1, human EGFR (His672-Ala1210) (Homo sapiens, UniProt P00533).
T1 construct: a construct expressing human EGFR (His672-Ala1210); GST (N); purchased Cell Signaling Technologies; host or cells: baculovirus expression system
Briefly: EGFR kinase inhibition assay (HTScan EGF Receptor Kinase Assay Kit). The format is biochemical. The protocol:
The ability of compounds to inhibit receptor kinase (EGFR) activity can be assayed using HTSCAN™ EGF Receptor Kinase Assay Kits (Cell Signaling Technologies, Danvers, Mass.). […] The protein is purified by one-step affinity chromatography using glutathione-agarose.
Immediately transfer enzyme from −80° C. to ice. Allow enzyme to thaw on ice. […] Return immediately to ice. […] Incubate reaction plate at room temperature for 30 minutes. […] Add 100 μl/well primary antibody. Incubate at room temperature for 60 minutes. […] Add 100 μl/well diluted antibody. Incubate at room temperature for 30 minutes. Wash five times with 200 μl/well PBS/T. Add 100 μl/well DELFIA® Enhancement Solution. Incubate at room temperature for 5 minutes.

The target of another data set is HER2/ErbB2 (Homo sapiens, UniProt P04626). Briefly: HER2/ErbB2 inhibition. Type of data set: biochemical.
Data set [2] relates to HDAC (HeLa nuclear extract). Briefly: HDAC fluorimetric assay (HDAC enzymatic activity). Type of data set: biochemical. The protocol:
HDAC inhibitors are screened using an HDAC fluorimetric assay kit (AK-500, Biomol, Plymouth Meeting, Pa.).
Each assay is setup as follows: Defrost all kit components and keep on ice until use. Dilute HeLa nuclear extract 1:29 in Assay Buffer (50 mM Tris/Cl, pH 8.0, 137 mM NaCl, 2.7 mM KCl, 1 mM MgCl2). Prepare dilutions of Trichostatin A (TSA, positive control) and test compounds in assay buffer (5× of final concentration). Dilute Fluor de Lys™ Substrate in assay buffer to 100 uM (50 fold=2× final). Dilute Fluor de Lys™ developer concentrate 20-fold (e.g. 50 μl plus 950 μl Assay Buffer) in cold assay buffer. Second, dilute the 0.2 mM Trichostatin A 100-fold in the 1× Developer (e.g. 10 μl in 1 ml; final Trichostatin A concentration in the 1× Developer=2 μM; final concentration after addition to HDAC/Substrate reaction=1 μM). Add Assay buffer, diluted trichostatin A or test inhibitor to appropriate wells of the microtiter plate. Add diluted HeLa extract or other HDAC sample to all wells except for negative controls. Allow diluted Fluor de Lys™ Substrate and the samples in the microtiter plate to equilibrate to assay temperature (e.g. 25 or 37° C. Initiate HDAC reactions by adding diluted substrate (25 μl) to each well and mixing thoroughly.
Allow HDAC reactions to proceed for 1 hour and then stopped them by addition of Fluor de Lys™ Developer (50 μl). Incubate plate at room temperature (25° C.) for 10-15 min. Read samples in a microtiter-plate reading fluorimeter capable of excitation at a wavelength in the range 350-380 nm and detection of emitted light in the range 440-460 nm.

T1 sequence (P00533 672-1210): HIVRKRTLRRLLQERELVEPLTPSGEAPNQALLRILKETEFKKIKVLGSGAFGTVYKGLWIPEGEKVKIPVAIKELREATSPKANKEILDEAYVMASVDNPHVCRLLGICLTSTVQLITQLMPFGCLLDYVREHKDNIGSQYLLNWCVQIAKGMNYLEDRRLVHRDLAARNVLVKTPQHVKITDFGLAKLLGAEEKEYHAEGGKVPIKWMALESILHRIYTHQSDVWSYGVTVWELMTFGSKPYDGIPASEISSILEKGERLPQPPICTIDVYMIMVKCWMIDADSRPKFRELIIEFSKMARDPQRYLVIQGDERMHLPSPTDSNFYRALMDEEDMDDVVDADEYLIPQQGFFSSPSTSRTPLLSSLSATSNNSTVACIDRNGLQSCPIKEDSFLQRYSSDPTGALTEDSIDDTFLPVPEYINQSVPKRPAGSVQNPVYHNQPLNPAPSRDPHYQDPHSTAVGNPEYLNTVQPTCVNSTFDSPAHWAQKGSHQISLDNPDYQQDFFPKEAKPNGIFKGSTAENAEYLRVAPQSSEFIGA
Sequence of HER2/ErbB2 (P04626 23-1255): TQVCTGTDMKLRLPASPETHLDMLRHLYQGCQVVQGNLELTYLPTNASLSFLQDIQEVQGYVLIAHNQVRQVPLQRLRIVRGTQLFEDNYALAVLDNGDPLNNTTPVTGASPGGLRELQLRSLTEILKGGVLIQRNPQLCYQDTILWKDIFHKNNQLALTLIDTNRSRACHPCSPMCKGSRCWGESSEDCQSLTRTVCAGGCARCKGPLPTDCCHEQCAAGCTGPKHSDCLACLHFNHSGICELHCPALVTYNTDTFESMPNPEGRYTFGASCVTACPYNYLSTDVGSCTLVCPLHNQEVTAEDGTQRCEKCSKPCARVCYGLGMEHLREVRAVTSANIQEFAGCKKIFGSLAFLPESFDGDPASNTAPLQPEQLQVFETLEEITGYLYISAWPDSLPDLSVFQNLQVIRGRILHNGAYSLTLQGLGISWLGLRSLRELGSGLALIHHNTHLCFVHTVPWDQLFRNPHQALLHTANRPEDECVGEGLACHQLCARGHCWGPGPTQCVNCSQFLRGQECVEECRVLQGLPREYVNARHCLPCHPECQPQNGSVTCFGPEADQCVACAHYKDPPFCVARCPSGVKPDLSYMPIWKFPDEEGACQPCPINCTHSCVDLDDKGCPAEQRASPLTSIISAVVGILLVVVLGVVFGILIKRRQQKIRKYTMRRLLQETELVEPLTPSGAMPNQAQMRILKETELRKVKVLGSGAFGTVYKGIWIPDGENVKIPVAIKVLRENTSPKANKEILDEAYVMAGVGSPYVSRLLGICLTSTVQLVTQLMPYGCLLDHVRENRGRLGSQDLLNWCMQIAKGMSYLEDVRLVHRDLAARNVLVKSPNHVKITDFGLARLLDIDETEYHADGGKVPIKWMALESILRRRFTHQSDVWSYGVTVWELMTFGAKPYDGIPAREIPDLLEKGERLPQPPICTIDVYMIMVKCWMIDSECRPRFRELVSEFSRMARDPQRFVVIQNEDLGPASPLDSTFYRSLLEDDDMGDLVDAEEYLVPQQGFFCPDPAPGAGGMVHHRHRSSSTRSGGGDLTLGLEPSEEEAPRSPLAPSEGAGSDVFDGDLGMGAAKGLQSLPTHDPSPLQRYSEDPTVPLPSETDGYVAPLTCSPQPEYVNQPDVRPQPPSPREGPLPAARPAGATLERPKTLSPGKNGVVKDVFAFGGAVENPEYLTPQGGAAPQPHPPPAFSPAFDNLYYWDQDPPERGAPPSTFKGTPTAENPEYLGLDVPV

For `C#Cc1cccc(Nc2ncnc3cc(OC)c(OCCCCC(=O)O)cc23)c1`, the IC50 in data set [1] was under 100 nM.

As to `C#Cc1cccc(Nc2ncnc3cc(OC)c(OCCCCCCC(=O)O)cc23)c1`, the results for the IC50 (against HER2/ErbB2; in data set [2]; in data set [1]) were 100 to 1000 nM, over 10000 nM and under 100 nM, respectively.

As to `C#Cc1cc(Nc2ncnc3cc(OC)c(OCCCCCCC(=O)O)cc23)ccc1O`, the figures for the IC50 in data set [2] and in data set [1] were over 10000 nM and under 100 nM, respectively.

Take `C#Cc1cc(Nc2ncnc3cc(OC)c(OCCCCC(=O)O)cc23)ccc1O`: the IC50 in data set [2] is over 10000 nM.

In turn, `CCOC(=O)COc1ccc2ncnc(Nc3ccc(F)c(Cl)c3)c2c1` [Compound 0210-13, Ethyl 2-(4-(3-chloro-4-fluorophenylamino)quinazolin-6-yloxy)acetate] registered a melting point of 161 to 163 °C.

As usually defined, the IC50 is the concentration that gives 50% inhibition. By melting point is commonly meant the temperature of the solid-liquid transition.
